Experimental data reported in patent US6660255B1, “Inhibition of gene transcription by polyamide DNA-binding ligands” (California Institute of Technology, priority 1997, dated 2003).
Entries after “also recorded” stand apart in the source; their conditions may differ. Like-named read-outs stand apart in the source and are kept apart here.

Columns and labels:
[1] = system: 5′-TGCTGCA-3′ (the HIV-1 target sequence); type: binding
[2] = system: 5′-TCGTCGA-3′ (reversed orientation match site); type: binding
[3] = system: HIV-1 enhancer/promoter restriction fragment; test: DNase footprint titration on HIV-1 enhancer/promoter fragment, other sites; type: binding; settings: mismatch polyamide, 1-60 nM
Text: White, S., Baird, E. E. & Dervan, P. B. describes the pairing rules for recognition in the minor groove of DNA by pyrrole-imidazole polyamides. Chem. & Biol. 4, 569-578 (1997); Swalley, S. E., Baird, E. E. & Dervan, P. B. describe the sequence specificity of the β/β pairing Chem Eur. J. 3, 1600 (1997). […] For DNase I footprinting a 400-bp restriction fragment containing the HIV-1 enhancer and promoter regions was isolated from pHIV LTR-CAT plasmid DNA (obtained from Dr. K. A. Jones of The Salk Institute, La Jolla, Calif.) (P. L. Sheridan et al., describe the sequence composition of the plasmid pHIV LTR-CAT Genes Dev. 9, 2090 (1995)). Labeled DNA was incubated with polyamide (45 minutes) and digested with DNase I under single-hit conditions.
Regions of polyamide protection were determined by analysis of the digestion products on a 6% denaturing polyacrylamide sequencing gel. Storage phosphorimage analysis of the data was used to obtain dissociation constants for the binding reactions (using Kodak Storage Phosphor Screens and a Molecular Dynamics SF PhosphorImager). Recombinant human TBP (rhTBP) was obtained from Promega and was used in footprinting and gel mobility shift experiments as recommended. The reaction mixtures also contained 100 ng of poly dG-poly dC per 10 μL gel shift reaction or 50 μL footprinting reaction. […]

[4] = system: HIV-1 promoter (LEF-1-activated transcription); test: HIV-1 transcription in vitro, H9 cell extract supplemented with HeLa nuclear extract; type: biochemical; settings: mismatch polyamide
Text: Based on the-results described above, it was expected that polyamide inhibition of LEF-1 binding would inhibit LEF-1-dependent transcription in an appropriate in vitro assay system. […] The H9 cell extract was supplemented with the HeLa cell-derived nuclear extract in order to obtain high levels of transcription. The H9 cell extract stimulates HIV-1 transcription ˜2.5 to 3-fold over the level of transcription observed with the HeLa extract alone and immunodepletion of LEF-1 protein from the H9 extract abolishes this activated transcription.
The effects of polyamides 1 and 2 on HIV-1 transcription were tested in an in vitro transcription assay with a HeLa cell nuclear extract (FIG. 21A). The effects of the polyamides on basal transcription by RNA polymerase II was monitored with a nuclear extract prepared from HeLa cells (J. D. Dignam, P. L. Martin, B. S. Shastry, R. G. Roeder, Describe eukaryotic gene transcription with purified components Meth. Enzymol. 101, 582 (1983)). […] Whole cell extracts of H9 cells in log phase growth were prepared by hypotonic lysis and contained 20 mg/ml protein, as determined by the Bradford reaction. […]
The effects of polyamides 3 and 4 on HIV-1 transcription in an in vitro system consisting of a cell-free extract prepared from cultured human lymphoid H9 cells supplemented with HeLa cell extract were determined. […]

[5] = system: IE86 binding to the CMV MIEP; test: DNase I footprinting, IE86 binding to the crs element; parameters: species or system human cytomegalovirus; settings: approximately 250 nM IE86
Text: These compounds together with purified recombinant IE86 protein were used in DNase I footprint experiments with a singly end-labeled restriction fragment derived from the CMV major immediate early promoter. […] A singly-end labeled restriction fragment was used in DNase I footprinting reactions. […] Lanes 1 and 18 represent a G+A sequencing ladder. […] The location of the TATA box and the start of transcription are indicated.

## CN(C)CCCNC(=O)CCNC(=O)c1cc(NC(=O)c2nc(NC(=O)CCNC(=O)c3cc(NC(=O)c4nc(NC(=O)CCCNC(=O)c5cc(NC(=O)c6nc(NC(=O)CCNC(=O)c7cc(NC(=O)c8nccn8C)cn7C)cn6C)cn5C)cn4C)cn3C)cn2C)cn1C [polyamide 4, ImPy-β-ImPy-γ-ImPy-β-ImPy-β-Dp]
[1]; Buffer A, 24° C.
  Equilibrium association constants, 5′-aTGCTGCA-3′: 1.5 × 10^10 (0.3) M^a
[1]; Buffer A, 37° C.
  Equilibrium association constants, 5′-aTGCTGCA-3′: 8.4 × 10^9 (2.3) M^a
[1]; Buffer B (140 mM KCl, 10 mM NaCl, 1 mM MgCl2, 1 mM spermine pH 7.2), 24° C.
  Equilibrium association constants, 5′-aTGCTGCA-3′: 1.9 × 10^10 (0.6) M^a
[1]; Buffer B, 37° C.
  Equilibrium association constants, 5′-aTGCTGCA-3′: 1.1 × 10^10 (0.2) M^a
[1]; polyamide 4 vs 8
  fold higher affinity relative to unlinked analog: ~6000 fold
[2]
  fold lower affinity for 5′-TCGTCGA-3′ than for 5′-TGCTGCA-3′: ~10 fold
[3]
  binding to the HIV-1 enhancer/promoter fragment: failed to detect any high affinity sites; also recorded: does not bind
[4]
  inhibition of HIV-1 transcription: fails to inhibit
[5]
  interference with IE86 binding: did not interfere
